Reference: patent US8980886B2, “Anthranilic acid derivatives” (Bayer Cropscience AG, priority 2010, dated 2015)

System: not listed separately
Test: logP by HPLC on reversed-phase columns (C 18), EEC Directive 79/831 Annex V.A8
Type: physicochemical
Conditions: reversed-phase HPLC column (C 18), pH 2.7, HPLC, reversed-phase C 18, acidic range pH 2.7; table of compounds; read-out: log P
Experimental: The logP values reported in the table above and in the Preparation Examples were determined in accordance with EEC Directive 79/831 Annex V.A8 by HPLC (High Performance Liquid Chromatography) on reversed-phase columns (C 18), with the following methods: The LC-MS determination in the acidic range is carried out at pH 2.7 using the mobile phases 0.1% aqueous formic acid and acetonitrile (contains 0.1% formic acid), linear gradient from 10% acetonitrile to 95% acetonitrile Calibration was carried out using unbranched alkan-2-ones (having from 3 to 16 carbon atoms) with known logP values (the logP values were determined by the retention times using linear interpolation between two successive alkanones).

SMILES	chromatographic logP
Cc1cc(Br)cc(C(N)=O)c1NC(=O)c1sc(Cn2nnc(C(F)(F)F)n2)nc1-c1ccccc1Cl [Compound 3]	3.45
Cc1cc(Cl)cc(C(=O)NC(C)(C)C)c1NC(=O)c1nc(Cn2nnc(C(F)(F)F)n2)sc1-c1ccccc1Cl [Compound 8]	4.75
Cc1cc(C#N)cc(C(=O)NC(C)(C)C)c1NC(=O)c1cnc(Cn2nnc(C(F)(F)F)n2)nc1-c1ccccc1Cl [Compound 39]	3.85
Cc1cc(C#N)cc(C(N)=O)c1NC(=O)c1cnc(Cn2nnc(C(F)(F)F)n2)nc1-c1ccccc1Cl [Compound 40]	2.69
CNC(=O)c1cc(C#N)cc(C)c1NC(=O)c1cc(Cn2nnc(C(F)(F)F)n2)cn1-c1ccccc1Cl [Compound 42]	3.31
CNC(=O)c1cc(Cl)cc(C)c1NC(=O)c1cc(Cn2nnc(C(F)(F)F)n2)cn1-c1ccccc1Cl [Compound 43]	3.75
CNC(=O)c1cc(Cl)cc(C)c1NC(=O)c1cc(Cn2nnc(C(F)(F)C(F)(F)F)n2)cn1-c1ccccc1Cl [Compound 44]	4.09

Now from value to molecule:

chromatographic logP	SMILES
3.91	Cc1cc(Cl)cc(C(=O)NC(C)C)c1NC(=O)c1cnc(Cn2nnc(C(F)(F)F)n2)nc1-c1ccccc1Cl [Compound 34]
3.01	Cc1cc(Cl)cc(C(N)=O)c1NC(=O)c1cnc(Cn2nnc(C(F)(F)F)n2)nc1-c1ccccc1Cl [Compound 35]
3.31	CNC(=O)c1cc(Cl)cc(C)c1NC(=O)c1cnc(Cn2nnc(C(F)(F)F)n2)nc1-c1ccccc1Cl [Compound 36]
3.5	Cc1cc(C#N)cc(C(=O)NC(C)C)c1NC(=O)c1cnc(Cn2nnc(C(F)(F)F)n2)nc1-c1ccccc1Cl [Compound 37]
2.93	CNC(=O)c1cc(C#N)cc(C)c1NC(=O)c1cnc(Cn2nnc(C(F)(F)F)n2)nc1-c1ccccc1Cl [Compound 38]
4.33	Cc1cc(Cl)cc(C(=O)NC(C)(C)C)c1NC(=O)c1cnc(Cn2nnc(C(F)(F)F)n2)nc1-c1ccccc1Cl [Compound 41]

System: Spodoptera frugiperda
Test: Spodoptera frugiperda test (SPODFR spray treatment)
Type: in vivo
Conditions: foliar, 168 h, sprayed maize leaf discs, after 7 days, read-out: effect in % (caterpillars killed)
Experimental: Solvents: 78.0 parts by weight of acetone 1.5 parts by weight of dimethylformamide Emulsifier: 0.5 part by weight of alkylaryl polyglycol ether To produce a suitable preparation of active compound, 1 part by weight of active compound is mixed with the stated amount of solvents and emulsifier, and the concentrate is diluted with emulsifier-containing water to the desired concentration. Discs of maize leaves (Zea mays) are sprayed with an active compound preparation of the desired concentration and, after drying, populated with caterpillars of the armyworm (Spodoptera frugiperda). After 7 days, the effect in % is determined 100% means that all caterpillars have been killed; 0% means that none of the caterpillars have been killed.

SMILES	pest or weed control at 100 g/ha [%]
Cc1cc(Cl)cc(C(=O)NC(C)C)c1NC(=O)c1cnc(Cn2nnc(C(F)(F)F)n2)nc1-c1ccccc1Cl [Compound 34]	100
Cc1cc(Cl)cc(C(N)=O)c1NC(=O)c1cnc(Cn2nnc(C(F)(F)F)n2)nc1-c1ccccc1Cl [Compound 35]	100
CNC(=O)c1cc(Cl)cc(C)c1NC(=O)c1cnc(Cn2nnc(C(F)(F)F)n2)nc1-c1ccccc1Cl [Compound 36]	100
Cc1cc(C#N)cc(C(=O)NC(C)C)c1NC(=O)c1cnc(Cn2nnc(C(F)(F)F)n2)nc1-c1ccccc1Cl [Compound 37]	100
CNC(=O)c1cc(C#N)cc(C)c1NC(=O)c1cnc(Cn2nnc(C(F)(F)F)n2)nc1-c1ccccc1Cl [Compound 38]	100
Cc1cc(C#N)cc(C(=O)NC(C)(C)C)c1NC(=O)c1cnc(Cn2nnc(C(F)(F)F)n2)nc1-c1ccccc1Cl [Compound 39]	100
Cc1cc(C#N)cc(C(N)=O)c1NC(=O)c1cnc(Cn2nnc(C(F)(F)F)n2)nc1-c1ccccc1Cl [Compound 40]	100
Cc1cc(Cl)cc(C(=O)NC(C)(C)C)c1NC(=O)c1cnc(Cn2nnc(C(F)(F)F)n2)nc1-c1ccccc1Cl [Compound 41]	100
CNC(=O)c1cc(C#N)cc(C)c1NC(=O)c1cc(Cn2nnc(C(F)(F)F)n2)cn1-c1ccccc1Cl [Compound 42]	100
CNC(=O)c1cc(Cl)cc(C)c1NC(=O)c1cc(Cn2nnc(C(F)(F)F)n2)cn1-c1ccccc1Cl [Compound 43]	100
CNC(=O)c1cc(Cl)cc(C)c1NC(=O)c1cc(Cn2nnc(C(F)(F)C(F)(F)F)n2)cn1-c1ccccc1Cl [Compound 44]	100

System: Phaedon cochleariae
Test: Phaedon test (PHAECO spray treatment)
Type: in vivo
Conditions: 168 h, sprayed Chinese cabbage discs, after 7 days, read-out: activity in % (beetle larvae killed)
Experimental: (§1) Solvents: 78.0 parts by weight of acetone 1.5 parts by weight of dimethylformamide Emulsifier: 0.5 part by weight of alkylaryl polyglycol ether To produce a suitable preparation of active compound, 1 part by weight of active compound is mixed with the stated amount of solvents and emulsifier, and the concentrate is diluted with emulsifier-containing water to the desired concentration. Discs of Chinese cabbage (Brassica pekinensis) are sprayed with an active compound preparation of the desired concentration and, after drying, populated with larvae of the mustard beetle (Phaedon cochleariae). After 7 days, the activity in % is determined. 100% means that all beetle larvae have been killed; 0% means that none of the beetle larvae have been killed.

SMILES	pest or weed control at 100 g/ha [%]
Cc1cc(Cl)cc(C(=O)NC(C)C)c1NC(=O)c1cnc(Cn2nnc(C(F)(F)F)n2)nc1-c1ccccc1Cl [Compound 34]	100
Cc1cc(Cl)cc(C(N)=O)c1NC(=O)c1cnc(Cn2nnc(C(F)(F)F)n2)nc1-c1ccccc1Cl [Compound 35]	100
CNC(=O)c1cc(Cl)cc(C)c1NC(=O)c1cnc(Cn2nnc(C(F)(F)F)n2)nc1-c1ccccc1Cl [Compound 36]	100
Cc1cc(C#N)cc(C(=O)NC(C)C)c1NC(=O)c1cnc(Cn2nnc(C(F)(F)F)n2)nc1-c1ccccc1Cl [Compound 37]	100
CNC(=O)c1cc(C#N)cc(C)c1NC(=O)c1cnc(Cn2nnc(C(F)(F)F)n2)nc1-c1ccccc1Cl [Compound 38]	100
Cc1cc(C#N)cc(C(=O)NC(C)(C)C)c1NC(=O)c1cnc(Cn2nnc(C(F)(F)F)n2)nc1-c1ccccc1Cl [Compound 39]	100
Cc1cc(C#N)cc(C(N)=O)c1NC(=O)c1cnc(Cn2nnc(C(F)(F)F)n2)nc1-c1ccccc1Cl [Compound 40]	100
Cc1cc(Cl)cc(C(=O)NC(C)(C)C)c1NC(=O)c1cnc(Cn2nnc(C(F)(F)F)n2)nc1-c1ccccc1Cl [Compound 41]	100
CNC(=O)c1cc(C#N)cc(C)c1NC(=O)c1cc(Cn2nnc(C(F)(F)F)n2)cn1-c1ccccc1Cl [Compound 42]	100
CNC(=O)c1cc(Cl)cc(C)c1NC(=O)c1cc(Cn2nnc(C(F)(F)F)n2)cn1-c1ccccc1Cl [Compound 43]	100
CNC(=O)c1cc(Cl)cc(C)c1NC(=O)c1cc(Cn2nnc(C(F)(F)C(F)(F)F)n2)cn1-c1ccccc1Cl [Compound 44]	100

System: Tetranychus urticae
Test: Tetranychus test, OP-resistant (TETRUR spray treatment)
Type: in vivo
Conditions: 100 g/ha, sprayed bean leaf discs, all stages, after 6 days
Experimental: as §1, with “of bean leaves (Phaseolus vulgaris) which are infested by all stages of the greenhouse red spider mite (Tetranychus urticae)” for “of Chinese cabbage (Brassica pekinensis)”, “desired concentration.” for “desired concentration and, after drying, populated with larvae of the mustard beetle (Phaedon cochleariae).”, “After 6” for “After 7”, “all of the spider mites” for “all beetle larvae”, “the spider mites” for “the beetle larvae”

SMILES	activity in % (spider mites killed) [%]
Cc1cc(Br)cc(C(N)=O)c1NC(=O)c1sc(Cn2nnc(C(F)(F)F)n2)nc1-c1ccccc1Cl [Compound 3]	100
Cc1cc(Cl)cc(C(=O)NC(C)(C)C)c1NC(=O)c1nc(Cn2nnc(C(F)(F)F)n2)sc1-c1ccccc1Cl [Compound 8]	80

System: Myzus persicae
Test: Myzus test (MYZUPE spray treatment)
Type: in vivo
Conditions: 100 g/ha, sprayed Chinese cabbage discs, all stages, after 6 days
Experimental: Solvents: 78 parts by weight of acetone 1.5 parts by weight of dimethylformamide Emulsifier: 0.5 part by weight of alkylaryl polyglycol ether To produce a suitable preparation of active compound, 1 part by weight of active compound is mixed with the stated amount of solvents and emulsifier, and the concentrate is diluted with emulsifier-containing water to the desired concentration. Discs of Chinese cabbage (Brassica pekinensis) infested by all stages of the green peach aphid (Myzus persicae) are sprayed with an active compound preparation of the desired concentration. After 6 days, the effect in % is determined. 100% means that all of the aphids have been killed; 0% means that none of the aphids have been killed.

SMILES	effect in % (aphids killed) [%]
CNC(=O)c1cc(C#N)cc(C)c1NC(=O)c1cc(Cn2nnc(C(F)(F)F)n2)cn1-c1ccccc1Cl [Compound 42]	80
CNC(=O)c1cc(Cl)cc(C)c1NC(=O)c1cc(Cn2nnc(C(F)(F)F)n2)cn1-c1ccccc1Cl [Compound 43]	100

System: Boophilus microplus
Test: Boophilus microplus test (BOOPMI injection)
Type: in vivo
Conditions: 20 μg/animal, injection into the abdomen, after 7 days
Experimental: Solvent: dimethyl sulphoxide To produce a suitable preparation of active compound, 10 mg of active compound are mixed with 0.5 ml of solvent and the concentrate is diluted with solvent to the desired concentration. The active compound solution is injected into the abdomen (Boophilus microplus), and the animals are transferred into dishes and stored in a climate-controlled room. The activity is assessed by […] of fertile eggs. After 7 days, the effect in % is determined. 100% means that none of the ticks has laid any fertile eggs.

SMILES	effect in % (no fertile eggs laid) [%]
Cc1cc(Cl)cc(C(=O)NC(C)C)c1NC(=O)c1cnc(Cn2nnc(C(F)(F)F)n2)nc1-c1ccccc1Cl [Compound 34]	100
Cc1cc(Cl)cc(C(N)=O)c1NC(=O)c1cnc(Cn2nnc(C(F)(F)F)n2)nc1-c1ccccc1Cl [Compound 35]	98
Cc1cc(C#N)cc(C(=O)NC(C)C)c1NC(=O)c1cnc(Cn2nnc(C(F)(F)F)n2)nc1-c1ccccc1Cl [Compound 37]	100
CNC(=O)c1cc(C#N)cc(C)c1NC(=O)c1cnc(Cn2nnc(C(F)(F)F)n2)nc1-c1ccccc1Cl [Compound 38]	100
Cc1cc(C#N)cc(C(=O)NC(C)(C)C)c1NC(=O)c1cnc(Cn2nnc(C(F)(F)F)n2)nc1-c1ccccc1Cl [Compound 39]	100
Cc1cc(C#N)cc(C(N)=O)c1NC(=O)c1cnc(Cn2nnc(C(F)(F)F)n2)nc1-c1ccccc1Cl [Compound 40]	100
Cc1cc(Cl)cc(C(=O)NC(C)(C)C)c1NC(=O)c1cnc(Cn2nnc(C(F)(F)F)n2)nc1-c1ccccc1Cl [Compound 41]	100

System: Musca domestica
Test: Musca domestica test (MUSCDO)
Type: in vivo
Conditions: 100 ppm, treated sponge, adult flies, after 2 days
Experimental: (§2) Solvent: dimethyl sulphoxide To produce a suitable preparation of active compound, 10 mg of active compound are mixed with 0.5 ml of dimethyl sulphoxide and the concentrate is diluted with water to the desired concentration. Vessels containing a sponge treated with the active compound preparation of the desired concentration are populated with adult Musca domestica. After 2 days, the kill in % is determined. 100% means that all of the flies have been killed; 0% means that none of the flies have been killed.

SMILES	kill in % [%]
Cc1cc(C#N)cc(C(=O)NC(C)C)c1NC(=O)c1cnc(Cn2nnc(C(F)(F)F)n2)nc1-c1ccccc1Cl [Compound 37]	100

System: Lucilia cuprina
Test: Lucilia cuprina test (LUCICU)
Type: in vivo
Conditions: 48 h, treated horse meat, larvae, after 2 days, read-out: kill in %
Experimental: as §2, with “horse meat” for “a sponge”, “about 20 Lucilia cuprina larvae.” for “adult Musca domestica.”, “larvae” for “flies”

SMILES	pest or weed control at 100 ppm [%]
Cc1cc(Br)cc(C(N)=O)c1NC(=O)c1sc(Cn2nnc(C(F)(F)F)n2)nc1-c1ccccc1Cl [Compound 3]	100
Cc1cc(Cl)cc(C(=O)NC(C)C)c1NC(=O)c1cnc(Cn2nnc(C(F)(F)F)n2)nc1-c1ccccc1Cl [Compound 34]	100
Cc1cc(Cl)cc(C(N)=O)c1NC(=O)c1cnc(Cn2nnc(C(F)(F)F)n2)nc1-c1ccccc1Cl [Compound 35]	100
Cc1cc(C#N)cc(C(=O)NC(C)C)c1NC(=O)c1cnc(Cn2nnc(C(F)(F)F)n2)nc1-c1ccccc1Cl [Compound 37]	100
CNC(=O)c1cc(C#N)cc(C)c1NC(=O)c1cnc(Cn2nnc(C(F)(F)F)n2)nc1-c1ccccc1Cl [Compound 38]	100
Cc1cc(C#N)cc(C(=O)NC(C)(C)C)c1NC(=O)c1cnc(Cn2nnc(C(F)(F)F)n2)nc1-c1ccccc1Cl [Compound 39]	100
Cc1cc(C#N)cc(C(N)=O)c1NC(=O)c1cnc(Cn2nnc(C(F)(F)F)n2)nc1-c1ccccc1Cl [Compound 40]	100
Cc1cc(Cl)cc(C(=O)NC(C)(C)C)c1NC(=O)c1cnc(Cn2nnc(C(F)(F)F)n2)nc1-c1ccccc1Cl [Compound 41]	100
